{"source": "patent US6468971B1", "about": "“Maintaining kidney function during surgery or trauma” (Board of Supervisors of Louisiana State University and …, priority 1998, dated 2002)", "key": {"[1]": {"test_system": "rats during surgery under isoflurane anesthesia", "parameters": "species or system Sprague-Dawley rat", "details": "rat, in vivo"}, "conscious humans": {"test_system": "conscious humans", "details": "cited from earlier work"}, "[2]": {"test_system": "human patients during general anesthesia and surgery", "details": "administered 90 minutes before anesthesia; cited from earlier work"}, "[3]": {"test_system": "isoflurane-anesthetized rats under surgery", "assay": "Renal response to drug given after start of surgery and isoflurane anesthesia", "format": "in vivo, Sprague-Dawley rat"}, "[4]": {"test_system": "rats anesthetized with pentobarbital", "details": "50 μg i.v.; cited from earlier work"}, "conscious rats [5]": {"test_system": "conscious rats", "assay": "E-2078 effect on urine flow and sodium excretion in conscious rats (Salas et al.)", "format": "in vivo, rat", "details": "50 μg i.v., after 15-30 minutes"}, "conscious rats [6]": {"test_system": "conscious rats", "details": "50 μg i.v., cited from earlier work"}, "[7]": {"details": "conscious healthy humans (Rimoy 1991)"}, "[8]": {"details": "intravenous bolus injection during isoflurane anesthesia and surgery"}}, "note": "Entries after “also recorded” stand apart in the source; their conditions may differ.", "data": [{"compound": "CN1c2ccccc2C(c2ccccc2F)=NCC1CNC(=O)c1ccsc1", "note": "(single isomer, unassigned; (+)) [tifluadom, (+)-(1-methyl-2,3-thienyl-carboxyl)-aminomethyl-5-(2-fluorophenyl)H-2,3-dihydro-1,4-benzodiazepine]", "values": [{"measurement": "effect on urine flow rate during surgery and isoflurane anesthesia", "setting": "[1]", "value": "remained steady (time 10) and consistently increased over time (time 20-90) until a plateau was reached (time 100-120)"}, {"measurement": "urinary potassium excretion", "setting": "[1]", "value": "remained low"}, {"measurement": "urinary sodium excretion", "setting": "[1]", "value": "remained low"}, {"measurement": "urine flow rate", "setting": "[1]", "value": 20, "unit": "µL/min"}, {"measurement": "urine osmolality", "setting": "[1]", "value": "remained low"}]}, {"compound": "C=C1CC2(CCC(N3CCCC3)C(N(C)C(=O)Cc3ccc(Cl)c(Cl)c3)C2)OC1=O", "note": "(stereo not shown) [U-62,066E, 3,4-dichloro-N-methyl-N-(3-methylene-2-oxo-8-(1-pyrrolidinyl)-1-oxaspiro(4,5)dec-7-yl)-benzeneacetamide]", "values": [{"measurement": "urinary potassium excretion", "setting": "[1]", "value": "gradual increase; also recorded: significant and steady increase toward a new plateau level"}, {"measurement": "urinary sodium excretion", "setting": "[1]", "value": "remained low throughout the duration of the experiment"}, {"measurement": "urine flow rate", "setting": "[1]", "value": "remained elevated throughout the 6 hours of the study"}, {"measurement": "central nervous system effects", "setting": "conscious humans; 3.2 μg/kg dose", "value": "sedation, significant dysphoria, and no significant euphoria"}, {"measurement": "diuretic response", "setting": "conscious humans; 5 μg/kg intramuscular", "value": "pronounced diuretic response"}, {"measurement": "sodium, potassium, or chloride excretion", "setting": "conscious humans; 2 to 6 μg/kg intramuscular", "value": "without increases in sodium, potassium, or chloride excretion"}, {"measurement": "water diuresis", "setting": "conscious humans; 2 to 6 μg/kg intramuscular", "value": "induced water diuresis"}, {"measurement": "urine osmolality", "setting": "conscious humans; [7]", "value": "decreased urine osmolality"}, {"measurement": "urine output", "setting": "conscious humans; [7]", "value": "significantly increased urine output"}, {"measurement": "diuretic potency relative to U-50,488H", "setting": "conscious humans; in vivo", "value": "about twice as potent a diuretic as U-50,488H"}]}, {"compound": "Clc1cccc(Cl)c1N=C1NCCN1", "note": "[clonidine]", "values": [{"measurement": "diuresis", "setting": "[2]", "value": "significant diuresis during surgery"}, {"measurement": "losses of sodium and potassium", "setting": "[2]", "value": "substantial losses of sodium and potassium"}, {"measurement": "mean arterial pressure and heart rate", "setting": "[2]", "value": "substantial decrease in mean arterial pressure and heart rate"}]}, {"compound": "NS(=O)(=O)c1cc(C(=O)O)c(NCc2ccco2)cc1Cl", "note": "[furosemide]", "values": [{"measurement": "effect on urine flow rate", "setting": "[3]; continuous intravenous infusion after start of surgery and isoflurane (U-50,488H 100 μg/kg/min)", "value": "returned to the impaired pre-drug levels"}, {"measurement": "urine flow rate, peak", "setting": "[3]; continuous intravenous infusion after start of surgery and isoflurane (U-50,488H 100 μg/kg/min), saline infusion 55 μl/min", "value": "about 200 μl/min"}, {"measurement": "course of urine flow rate after the peak", "setting": "[3]; [8]", "value": "declined rapidly"}, {"measurement": "urine flow rate, peak", "setting": "[3]; [8]", "value": "about 300 μl/min"}]}, {"compound": "OC[C@@H](O)[C@@H](O)[C@H](O)[C@H](O)CO", "note": "[mannitol]", "values": [{"measurement": "course of urine flow rate after the peak", "setting": "[3]; [8]", "value": "not maintained and declined to the impaired levels observed before drug administration"}, {"measurement": "urinary potassium excretion", "setting": "[3]; [8]", "value": "increase in urinary sodium and potassium excretion"}, {"measurement": "urinary sodium excretion", "setting": "[3]; [8]", "value": "increase in urinary sodium and potassium excretion"}, {"measurement": "urine flow rate, peak", "setting": "[3]; [8]", "value": "up to 135 μl/min"}]}, {"compound": "(N-methyl-Tyr^1,N-methyl-Arg^7-D-Leu^8)-dynorphin-A(1-8) ethylamide [E-2078]", "values": [{"measurement": "urinary sodium excretion", "setting": "[4]", "value": "0.3±0.1", "unit": "μEq/min"}, {"measurement": "urine flow rate", "setting": "[4]", "value": "6.3 ± 1.0", "unit": "µL/min"}, {"measurement": "increase over the baseline flow rate", "setting": "conscious rats [5]", "value": 78, "unit": "µL/min"}, {"measurement": "urine flow rate", "setting": "conscious rats [6]; after 15-30 minutes", "value": "118 ± 22", "unit": "µL/min"}, {"measurement": "urinary sodium excretion", "setting": "conscious rats [6]; at 30-45 min", "value": "1.4±0.4", "unit": "μEq/min"}]}]}
